One test concerns the target TLR2-TLR1 heterodimers (Homo sapiens, UniProt O60603+Q15399). In words: Potency comparison of TLR2-TLR1 agonists (EC50). The conditions noted are these: order of magnitude only. The test is classed as cell-based.
Test [1] concerns mouse bone marrow-derived dendritic cells (mBMDCs). Description: mBMDC cytokine assay (wild-type cells; TNFα ELISA, cytometric bead array). The test is classed as cell-based. The following applies: overnight, fractions or purified compounds at 50 μg/ml. From the text: Previously, to identify immunoregulatory small molecules from gut microbes, an unbiased functional assay was employed using cytokine release from murine bone marrow-derived dendritic cells (mBMDCs) in response to fractionated bacterial extracts (7). Dendritic cells, which are part of the innate immune system, detect pathogen-associated molecules and relay information to the adaptive immune system through the release of cytokines. It was reasoned that the same approach would identify immunomodulatory molecules produced by A. muciniphila.
These assays were done as described previously (21). Femurs and tibias were collected from male or female wild-type, TLR2^−/−, or TLR4^−/− C57BL/6 mice that were at least 3-4 weeks old and preferably 7-12 weeks of age. The bone marrow was pushed from the bones using a needle and syringe of complete Dulbecco's Modified Eagle Medium (DMEM) (supplemented with Gibco GlutaMAX Supplement (35050061), Gibco Penicillin-Streptomycin (15140122), and 10% heat-inactivated fetal bovine serum (FBS)) and strained through a 70 μm nylon filter. […] Cells were counted and then plated at approximately 5 million cells per plate with ˜20-40 ng/ml RmGM-CSF (PreProTech 315-03). […] The resulting bone marrow derived dendritic cells (mBMDCs), were then scraped and counted again. […] Data was collected with NovoExpress 1.4.1 and analyzed using FlowJo v10.7.

Experimental findings from US20250152611A1, “IMMUNOMODULATORY LIPIDS AND USES THEREOF” (President and Fellows of Harvard College, priority 2022, published 2025) are described below.

Sequence of TLR2-TLR1 heterodimers (O60603 21-784): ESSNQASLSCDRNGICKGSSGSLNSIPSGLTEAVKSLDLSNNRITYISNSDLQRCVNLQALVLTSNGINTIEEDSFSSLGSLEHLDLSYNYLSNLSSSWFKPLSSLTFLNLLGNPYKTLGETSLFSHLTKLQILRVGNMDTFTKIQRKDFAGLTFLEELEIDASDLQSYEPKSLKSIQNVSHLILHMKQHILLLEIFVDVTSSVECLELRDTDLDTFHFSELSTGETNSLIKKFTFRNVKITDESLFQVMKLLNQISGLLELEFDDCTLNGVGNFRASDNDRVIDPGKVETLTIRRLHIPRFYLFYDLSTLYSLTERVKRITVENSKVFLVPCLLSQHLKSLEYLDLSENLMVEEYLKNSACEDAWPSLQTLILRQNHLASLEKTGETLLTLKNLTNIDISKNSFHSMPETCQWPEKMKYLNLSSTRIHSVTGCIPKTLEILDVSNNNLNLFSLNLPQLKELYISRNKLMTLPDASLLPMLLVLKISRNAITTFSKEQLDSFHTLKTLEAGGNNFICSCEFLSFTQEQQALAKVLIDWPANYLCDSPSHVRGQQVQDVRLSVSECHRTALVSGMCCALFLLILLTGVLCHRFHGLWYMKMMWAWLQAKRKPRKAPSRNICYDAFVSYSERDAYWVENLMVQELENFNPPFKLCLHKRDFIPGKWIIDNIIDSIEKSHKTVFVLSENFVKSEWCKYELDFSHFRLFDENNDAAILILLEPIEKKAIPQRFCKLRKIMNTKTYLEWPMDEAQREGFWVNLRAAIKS
Sequence of TLR2-TLR1 heterodimers (Q15399 25-786): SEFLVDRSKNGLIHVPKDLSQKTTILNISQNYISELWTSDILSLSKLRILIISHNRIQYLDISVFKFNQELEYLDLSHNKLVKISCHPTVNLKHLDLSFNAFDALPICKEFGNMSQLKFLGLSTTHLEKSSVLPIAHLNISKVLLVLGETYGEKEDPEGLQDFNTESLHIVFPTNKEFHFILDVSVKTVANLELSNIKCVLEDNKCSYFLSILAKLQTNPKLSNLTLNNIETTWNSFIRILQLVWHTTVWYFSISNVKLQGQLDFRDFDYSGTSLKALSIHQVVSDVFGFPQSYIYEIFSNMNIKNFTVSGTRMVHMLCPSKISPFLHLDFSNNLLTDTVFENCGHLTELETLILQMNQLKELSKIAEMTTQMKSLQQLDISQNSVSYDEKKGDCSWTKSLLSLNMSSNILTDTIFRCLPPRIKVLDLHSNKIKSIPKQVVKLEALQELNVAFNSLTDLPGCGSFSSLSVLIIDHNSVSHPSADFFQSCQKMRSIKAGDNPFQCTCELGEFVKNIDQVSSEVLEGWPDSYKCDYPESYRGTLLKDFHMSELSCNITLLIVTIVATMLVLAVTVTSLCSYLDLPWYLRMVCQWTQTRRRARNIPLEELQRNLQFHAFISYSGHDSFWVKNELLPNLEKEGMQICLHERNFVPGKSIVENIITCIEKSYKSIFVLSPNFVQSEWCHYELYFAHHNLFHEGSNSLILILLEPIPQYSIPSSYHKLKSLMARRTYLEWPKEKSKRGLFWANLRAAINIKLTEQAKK

In the case of `CC[C@H](C)CCCCCCCCCCC(=O)OC[C@@H](COP(=O)(O)OCCN)OC(=O)CCCCCCCCCCCC(C)C` [a15:0-i15:0 PE, 12-methyltetradecanoyl-13-methyltetradecanoyl-sn-glycero-3-phosphoethanolamine], at TLR2-TLR1 heterodimers, the EC50 values entry is recorded as “μM”.
As to `CCCCCCCCCCCCCC(=O)OC[C@H](COP(=O)(O)OCCN)OC(=O)CCCCCCCCCCCCC` [n14:0-n14:0 PE], the TNFα induction/production entry in test [1] is listed as “no detectable TNFα induction”.
On to `CCCCCCCCCCCCCCCC(=O)OCC(COP(=O)(O)OCCN)OC(=O)CCCCCCCCCCCCCCC` (stereo not drawn) [n16:0-n16:0 PE], for which, in test [1], the TNFα induction/production result is listed as “no detectable TNFα induction”.
